Experimental data taken from ChEMBL document CHEMBL1201862, “PubChem BioAssay data set” (2004).
Active and inactive are the calls of the source.

What was measured:
Hexokinase-1 = molecular target: T1, Hexokinase-1 (Homo sapiens, UniProt P19367); experiment: HK1 enzyme activation by HKDC1 hits – biochemical, selectivity assay for HKDC1 activator project, dose response (AID 504762); assay type: functional
T1 sequence (P19367 whole entry): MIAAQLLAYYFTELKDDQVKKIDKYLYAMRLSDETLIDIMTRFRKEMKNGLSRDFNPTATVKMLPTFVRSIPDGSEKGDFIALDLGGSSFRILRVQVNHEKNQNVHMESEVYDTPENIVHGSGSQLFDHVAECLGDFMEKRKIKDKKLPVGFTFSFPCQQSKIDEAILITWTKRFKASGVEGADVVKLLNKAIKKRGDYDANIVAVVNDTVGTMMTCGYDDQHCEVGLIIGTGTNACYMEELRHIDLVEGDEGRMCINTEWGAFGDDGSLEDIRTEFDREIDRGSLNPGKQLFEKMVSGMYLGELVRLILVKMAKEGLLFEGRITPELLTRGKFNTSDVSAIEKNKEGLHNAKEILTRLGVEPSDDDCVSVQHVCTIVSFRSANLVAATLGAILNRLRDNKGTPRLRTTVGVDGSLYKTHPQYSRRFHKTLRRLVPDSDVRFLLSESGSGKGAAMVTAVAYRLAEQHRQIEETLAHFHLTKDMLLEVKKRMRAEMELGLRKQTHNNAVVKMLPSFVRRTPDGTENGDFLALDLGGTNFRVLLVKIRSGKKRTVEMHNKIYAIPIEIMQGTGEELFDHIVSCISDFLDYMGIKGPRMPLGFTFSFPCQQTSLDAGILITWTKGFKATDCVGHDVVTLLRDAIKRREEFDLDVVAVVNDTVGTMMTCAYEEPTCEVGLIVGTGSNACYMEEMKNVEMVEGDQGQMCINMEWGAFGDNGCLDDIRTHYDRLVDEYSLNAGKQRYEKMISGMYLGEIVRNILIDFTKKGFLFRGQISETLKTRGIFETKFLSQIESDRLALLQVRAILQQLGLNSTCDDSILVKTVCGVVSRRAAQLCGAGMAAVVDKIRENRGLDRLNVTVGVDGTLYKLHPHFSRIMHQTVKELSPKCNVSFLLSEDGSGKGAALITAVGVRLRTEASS

Hexokinase HKDC1 = molecular target: T2, Hexokinase HKDC1 (Homo sapiens, UniProt Q2TB90); experiment: activation of HKDC1 glucose phosphorylation – biochemical, W721R variant, dose response (AID 504730); assay type: functional
T2 sequence (Q2TB90 whole entry): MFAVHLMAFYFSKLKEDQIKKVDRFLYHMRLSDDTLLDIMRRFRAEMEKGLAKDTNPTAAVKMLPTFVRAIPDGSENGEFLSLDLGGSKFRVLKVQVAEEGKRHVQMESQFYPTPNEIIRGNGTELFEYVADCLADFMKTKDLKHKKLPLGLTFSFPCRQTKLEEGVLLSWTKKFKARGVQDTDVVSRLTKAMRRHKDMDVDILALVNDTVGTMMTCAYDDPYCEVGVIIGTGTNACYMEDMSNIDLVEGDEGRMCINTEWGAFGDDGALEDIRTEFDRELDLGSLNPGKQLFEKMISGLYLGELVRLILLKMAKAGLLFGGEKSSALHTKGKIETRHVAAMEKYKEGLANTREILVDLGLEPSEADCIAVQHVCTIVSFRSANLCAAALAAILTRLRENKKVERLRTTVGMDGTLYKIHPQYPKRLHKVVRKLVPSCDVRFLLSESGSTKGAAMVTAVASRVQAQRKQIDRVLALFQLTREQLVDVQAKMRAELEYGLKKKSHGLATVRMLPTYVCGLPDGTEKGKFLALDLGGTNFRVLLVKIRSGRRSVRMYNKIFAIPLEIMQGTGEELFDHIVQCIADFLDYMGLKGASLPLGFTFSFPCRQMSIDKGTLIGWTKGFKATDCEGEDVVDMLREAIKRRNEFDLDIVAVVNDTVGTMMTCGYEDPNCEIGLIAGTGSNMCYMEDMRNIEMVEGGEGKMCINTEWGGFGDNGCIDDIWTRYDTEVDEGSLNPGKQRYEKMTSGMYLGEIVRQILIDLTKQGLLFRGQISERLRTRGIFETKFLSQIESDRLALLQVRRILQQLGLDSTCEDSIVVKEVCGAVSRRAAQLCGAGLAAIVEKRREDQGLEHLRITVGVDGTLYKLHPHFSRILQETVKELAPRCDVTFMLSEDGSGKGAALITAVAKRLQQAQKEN

[1] = molecular target: Histone-lysine N-methyltransferase NSD2 (Homo sapiens, UniProt O96028); assay type: biochemical
[2] = molecular target: Photoreceptor-specific nuclear receptor (Homo sapiens, UniProt Q9Y5X4); assay type: functional, cell-based;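 note: CHO-S cells with Gal4-NCOR and VP16-NR2E3 two-hybrid luciferase reporter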
Protein S100-A4 = Protein S100-A4 (Homo sapiens, UniProt P26447); experiment: human S100A4 peptide interaction inhibition curves – biochemical, fluorescence polarization, cherry-picked hits, dose response (AID 687001); assay type: functional
Paired box protein Pax-8 = Paired box protein Pax-8 (Homo sapiens, UniProt Q06710); experiment: PAX8 transcriptional activity inhibition in RMG-I – RMG-I cells, luciferase, cherry-pick, dose response (AID 687027); assay type: functional, cell-based;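 note: luciferase reporter driven by Pax8 target thyroperoxidase promoter measured by SteadyGlo luminescence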
[3] = molecular target: Heat shock protein HSP 90-alpha (Homo sapiens, UniProt P07900); assay type: functional, organism-based
Keap1/Nrf2 = Keap1/Nrf2 (Homo sapiens, UniProt Q14145); experiment: disruptors of Keap1 binding to Nrf2 peptide – biochemical, fluorescence polarization, cherry-picked samples, dose response (AID 588683)
[4] = molecular target: Intestinal-type alkaline phosphatase (Mus musculus, UniProt P24822); experiment: PubChem AID 488874; assay type: functional
[5] = fluconazole-exposed Candida albicans growth modulators – fluorescence, retest, confirmation (AID 2467); assay type: functional, cell-based
[6] = HEK-293T viability loss after treatment – luminescence, T-cell screen hits, cytotoxicity control for TCR NF-kB inhibitor project, dose response (AID 489026); assay type: functional, cell-based;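 note: cells exposed to compound about 14 hours before the viability readout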
[7] = molecular target: T3, Alkaline phosphatase, tissue-nonspecific isozyme (Homo sapiens, UniProt P05186); experiment: activation of tissue-nonspecific alkaline phosphatase – biochemical, TNAP isozyme, human IAP uHTS hits, selectivity assay for human IAP activator project, dose response (AID 488886); assay type: functional;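 note: potency of compounds raising TNAP activity as a selectivity check on IAP activators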
T3 sequence (P05186 whole entry): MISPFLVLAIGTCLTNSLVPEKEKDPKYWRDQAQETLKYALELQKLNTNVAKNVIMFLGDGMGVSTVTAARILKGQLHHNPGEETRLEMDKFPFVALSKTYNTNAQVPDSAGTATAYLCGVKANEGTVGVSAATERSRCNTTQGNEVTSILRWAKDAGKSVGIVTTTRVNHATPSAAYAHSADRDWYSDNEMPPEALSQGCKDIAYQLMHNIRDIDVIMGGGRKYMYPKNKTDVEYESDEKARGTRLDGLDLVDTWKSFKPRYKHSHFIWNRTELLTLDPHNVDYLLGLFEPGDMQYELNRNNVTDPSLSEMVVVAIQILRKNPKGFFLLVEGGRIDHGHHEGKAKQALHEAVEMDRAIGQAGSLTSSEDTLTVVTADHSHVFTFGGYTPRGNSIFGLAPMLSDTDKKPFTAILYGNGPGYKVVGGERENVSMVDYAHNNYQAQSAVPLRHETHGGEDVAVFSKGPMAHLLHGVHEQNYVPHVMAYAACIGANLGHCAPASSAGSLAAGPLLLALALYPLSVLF

[8] = alpha-synuclein stem-loop luciferase translation blockers – H4 neuroglioma cells, luminescence, confirmation (AID 1988); assay type: functional, cell-based
[9] = Luminescence-based dose response cell-based high throughput screening assay for cytotoxic compounds using the IEC-6 intestinal epithelial cell line. [Related pubchem assays: 1858 (Summary AID.), 1825 (Counterscreen.), 1907 (Confirmation screen.)]; assay type: functional
[10] = decrease of insulin promoter-GFP reporter – imaging, high-content screening, mouse beta cells (AID 1628); assay type: functional; conditions: MIN6
[11] = molecular target: T4, Intestinal-type alkaline phosphatase (Homo sapiens, UniProt P09923); experiment: activation of human intestinal alkaline phosphatase – biochemical, luminescent, uHTS hits, set 2, dose response (AID 488817); assay type: functional;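 note: potency of activators that raise enzyme activity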
INS1 = experiment: INS-1E survival protection against cytokine death – cell-based, luminescence, retest, dose response (AID 449756); assay type: functional; conditions: Rattus norvegicus;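 note: cell death triggered by IL-1 beta plus TNF-alpha plus IFN-gamma mixture; protective hits raise ATP signal compared with cytokine alone wells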
[12] = molecular target: T4, Intestinal-type alkaline phosphatase; experiment: human intestinal alkaline phosphatase activators, dose response, biochemical, luminescence, uHTS hits (AID 463120); assay type: functional
[13] = DRD fibroblast viability loss – cell-based, non-viral oncogenic, luminescence, dose response (AID 1934); assay type: functional; conditions: Homo sapiens
[14] = MIN6 cell viability loss – mouse insulinoma, cytotoxicity control, dose response (AID 2122); assay type: functional;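 note: confirmatory high-throughput counterscreen run to flag cytotoxic compounds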
[15] = luciferase reporter signal suppression in cells – H4 neuroglioma cells, luminescence, dose response (AID 1990); assay type: functional, cell-based
cells = assay type: functional
BJ [16] = experiment: cells; assay type: functional, cell-based; conditions: Homo sapiens
[17] = HepG2 cell cytotoxicity, dose response, cytotoxicity control for non-replicating M. tuberculosis project (AID 489018); assay type: functional; conditions: Mycobacterium tuberculosis
[18] = HPDE-C7 pancreatic duct cell viability loss – fluorescence, HTS (AID 430); assay type: functional, cell-based; conditions: Homo sapiens
[19] = THP-1 cell cytotoxicity, dose response, cytotoxicity control for non-replicating M. tuberculosis project (AID 489025); assay type: functional
BJ [20] = experiment: BJ-TERT-LT-ST fibroblast viability loss – cell-based, RAS-independent, luminescence, dose response (AID 1935); assay type: functional; conditions: Homo sapiens;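 note: BJ fibroblasts immortalized with TERT plus LT and ST oncogenes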
[21] = viability loss of HPDE-C7K cells – cell-based, fluorescence, HTS, primary screen (AID 431); assay type: functional; conditions: Homo sapiens
BJ [22] = experiment: BJ-TERT fibroblast viability loss – cell-based, RAS-independent, luminescence, dose response (AID 1933); assay type: functional; conditions: Homo sapiens
[23] = NIH-3T3 fibroblast cytotoxicity, dose response, cytotoxicity control, cell-based, fluorescence, Alamar Blue, secondary assay (AID 2327); assay type: functional;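 note: NIH-3T3 mouse fibroblasts cultured with fluconazole at 8 µg/mL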
[24] = Luminescence Cell-Based Dose Response HTS to Identify Inhibitors of 5'UTR Stem-Loop Driven Prion Protein mRNA Translation in H4 Neuroglioblastoma Cells. [Related pubchem assays: 1827 (Project Summary), 1813 (Primary HTS)]; assay type: functional
HEK293 = experiment: EBV LMP1 TES2 canonical NF-kB signalling blockers – cell-based, HEK293, luciferase, cherry-pick, dose response (AID 588343); assay type: functional; conditions: Homo sapiens
Nonstructural protein 1 = Nonstructural protein 1 (Influenza A virus, UniProt Q194T2); assay type: functional, Influenza A virus (A/California/07/2009(H1N1))
[25] = Vero E6 cell cytotoxicity, dose response, cytotoxicity control for non-replicating M. tuberculosis project, secondary assay (AID 492998); assay type: functional, VeroE6; conditions: Vero C1008

T4 sequence (P09923 whole entry): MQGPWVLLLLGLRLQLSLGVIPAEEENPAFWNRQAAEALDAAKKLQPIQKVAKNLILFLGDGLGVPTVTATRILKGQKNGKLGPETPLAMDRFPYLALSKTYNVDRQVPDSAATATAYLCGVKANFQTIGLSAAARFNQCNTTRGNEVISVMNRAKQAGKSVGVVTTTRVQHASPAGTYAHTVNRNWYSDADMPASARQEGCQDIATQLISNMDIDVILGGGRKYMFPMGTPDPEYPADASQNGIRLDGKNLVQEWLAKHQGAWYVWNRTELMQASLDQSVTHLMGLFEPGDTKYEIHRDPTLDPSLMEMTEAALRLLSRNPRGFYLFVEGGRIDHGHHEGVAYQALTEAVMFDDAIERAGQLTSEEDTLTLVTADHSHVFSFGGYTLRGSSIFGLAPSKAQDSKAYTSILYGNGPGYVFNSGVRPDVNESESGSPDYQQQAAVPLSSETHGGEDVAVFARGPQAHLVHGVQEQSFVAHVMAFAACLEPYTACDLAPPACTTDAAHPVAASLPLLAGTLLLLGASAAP
Paired box protein Pax-8, sequence (Q06710 whole entry): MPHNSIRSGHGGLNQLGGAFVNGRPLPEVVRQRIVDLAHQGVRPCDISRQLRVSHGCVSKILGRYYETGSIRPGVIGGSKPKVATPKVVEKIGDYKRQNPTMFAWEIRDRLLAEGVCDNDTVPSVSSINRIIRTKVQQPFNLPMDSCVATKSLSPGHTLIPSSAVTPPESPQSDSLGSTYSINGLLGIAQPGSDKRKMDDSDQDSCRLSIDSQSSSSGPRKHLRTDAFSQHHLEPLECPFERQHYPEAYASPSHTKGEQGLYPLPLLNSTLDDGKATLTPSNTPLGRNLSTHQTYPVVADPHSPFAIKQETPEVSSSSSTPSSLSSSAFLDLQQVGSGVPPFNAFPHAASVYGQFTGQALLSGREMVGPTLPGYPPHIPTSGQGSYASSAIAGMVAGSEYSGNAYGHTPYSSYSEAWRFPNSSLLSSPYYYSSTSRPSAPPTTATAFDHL
Keap1/Nrf2, sequence (Q16236 whole entry): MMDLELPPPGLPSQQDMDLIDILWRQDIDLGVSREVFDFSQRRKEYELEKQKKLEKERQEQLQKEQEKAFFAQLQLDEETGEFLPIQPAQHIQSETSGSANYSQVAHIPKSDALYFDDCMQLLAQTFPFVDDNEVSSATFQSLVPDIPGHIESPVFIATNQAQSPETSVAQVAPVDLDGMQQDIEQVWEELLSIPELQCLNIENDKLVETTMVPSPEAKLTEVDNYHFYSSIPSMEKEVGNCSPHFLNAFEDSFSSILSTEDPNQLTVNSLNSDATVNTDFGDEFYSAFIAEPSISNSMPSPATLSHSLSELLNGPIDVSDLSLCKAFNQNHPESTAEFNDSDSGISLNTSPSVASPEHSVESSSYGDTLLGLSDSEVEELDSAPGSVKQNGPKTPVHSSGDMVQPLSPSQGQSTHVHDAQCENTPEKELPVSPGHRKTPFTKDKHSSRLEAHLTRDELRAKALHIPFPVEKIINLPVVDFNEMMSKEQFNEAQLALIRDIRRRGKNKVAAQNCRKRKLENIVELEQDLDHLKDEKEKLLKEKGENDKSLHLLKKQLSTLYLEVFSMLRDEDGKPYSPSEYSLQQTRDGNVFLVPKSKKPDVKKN
Keap1/Nrf2, sequence (Q14145 whole entry): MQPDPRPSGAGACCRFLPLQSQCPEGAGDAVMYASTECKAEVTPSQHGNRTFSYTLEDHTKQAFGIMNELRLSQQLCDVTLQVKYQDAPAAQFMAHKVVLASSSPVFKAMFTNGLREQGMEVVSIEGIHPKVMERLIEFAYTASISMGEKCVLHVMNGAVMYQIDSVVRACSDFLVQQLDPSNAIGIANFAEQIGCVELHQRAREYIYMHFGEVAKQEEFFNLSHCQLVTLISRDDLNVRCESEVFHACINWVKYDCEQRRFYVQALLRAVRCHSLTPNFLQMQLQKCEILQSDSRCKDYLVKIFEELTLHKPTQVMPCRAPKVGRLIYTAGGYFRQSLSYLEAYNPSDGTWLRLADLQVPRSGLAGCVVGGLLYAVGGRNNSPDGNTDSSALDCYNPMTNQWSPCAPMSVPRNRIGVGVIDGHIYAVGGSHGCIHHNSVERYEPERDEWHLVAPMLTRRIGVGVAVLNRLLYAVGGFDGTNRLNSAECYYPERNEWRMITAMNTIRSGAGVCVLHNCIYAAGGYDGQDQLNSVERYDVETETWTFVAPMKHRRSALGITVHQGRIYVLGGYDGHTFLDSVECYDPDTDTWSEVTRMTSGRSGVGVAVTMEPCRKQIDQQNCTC
Photoreceptor-specific nuclear receptor, sequence (Q9Y5X4 whole entry, the tested form may be a part): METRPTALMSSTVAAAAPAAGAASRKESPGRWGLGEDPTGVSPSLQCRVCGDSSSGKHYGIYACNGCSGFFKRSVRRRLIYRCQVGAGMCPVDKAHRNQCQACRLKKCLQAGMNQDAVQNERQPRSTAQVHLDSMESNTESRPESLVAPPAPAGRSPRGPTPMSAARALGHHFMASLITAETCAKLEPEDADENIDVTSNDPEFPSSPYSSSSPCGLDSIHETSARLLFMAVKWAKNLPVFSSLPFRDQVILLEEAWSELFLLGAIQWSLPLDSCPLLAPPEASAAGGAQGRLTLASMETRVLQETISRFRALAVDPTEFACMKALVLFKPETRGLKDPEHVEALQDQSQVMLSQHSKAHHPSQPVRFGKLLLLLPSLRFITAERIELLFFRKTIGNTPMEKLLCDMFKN
Protein S100-A4, sequence (P26447 whole entry): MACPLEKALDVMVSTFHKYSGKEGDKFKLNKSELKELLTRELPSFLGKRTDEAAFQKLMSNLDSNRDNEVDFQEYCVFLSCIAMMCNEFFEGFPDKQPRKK
Nonstructural protein 1, sequence (Q194T2 whole entry): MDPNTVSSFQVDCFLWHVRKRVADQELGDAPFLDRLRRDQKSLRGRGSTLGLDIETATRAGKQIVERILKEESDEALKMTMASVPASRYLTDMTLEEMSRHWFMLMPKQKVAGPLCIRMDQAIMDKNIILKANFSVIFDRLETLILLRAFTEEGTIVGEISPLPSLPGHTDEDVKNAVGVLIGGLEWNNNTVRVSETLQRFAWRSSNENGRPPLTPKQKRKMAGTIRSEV
Intestinal-type alkaline phosphatase (Mus musculus, UniProt P24822), sequence (P24822 whole entry): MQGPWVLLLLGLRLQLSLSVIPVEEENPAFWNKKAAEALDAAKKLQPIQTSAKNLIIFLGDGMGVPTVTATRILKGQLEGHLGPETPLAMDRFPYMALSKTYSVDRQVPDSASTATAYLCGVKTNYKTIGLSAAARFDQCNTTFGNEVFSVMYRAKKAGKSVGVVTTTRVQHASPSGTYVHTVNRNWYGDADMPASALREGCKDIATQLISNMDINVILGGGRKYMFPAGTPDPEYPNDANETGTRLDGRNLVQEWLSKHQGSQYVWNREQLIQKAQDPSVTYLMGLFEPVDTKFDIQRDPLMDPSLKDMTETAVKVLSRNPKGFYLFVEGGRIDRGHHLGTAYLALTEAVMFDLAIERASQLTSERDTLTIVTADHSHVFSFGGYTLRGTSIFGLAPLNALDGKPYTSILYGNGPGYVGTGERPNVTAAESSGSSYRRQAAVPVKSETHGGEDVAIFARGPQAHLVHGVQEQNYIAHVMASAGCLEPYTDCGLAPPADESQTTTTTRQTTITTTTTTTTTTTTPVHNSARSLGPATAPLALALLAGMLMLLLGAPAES
Histone-lysine N-methyltransferase NSD2, sequence (O96028 whole entry, the tested form may be a part): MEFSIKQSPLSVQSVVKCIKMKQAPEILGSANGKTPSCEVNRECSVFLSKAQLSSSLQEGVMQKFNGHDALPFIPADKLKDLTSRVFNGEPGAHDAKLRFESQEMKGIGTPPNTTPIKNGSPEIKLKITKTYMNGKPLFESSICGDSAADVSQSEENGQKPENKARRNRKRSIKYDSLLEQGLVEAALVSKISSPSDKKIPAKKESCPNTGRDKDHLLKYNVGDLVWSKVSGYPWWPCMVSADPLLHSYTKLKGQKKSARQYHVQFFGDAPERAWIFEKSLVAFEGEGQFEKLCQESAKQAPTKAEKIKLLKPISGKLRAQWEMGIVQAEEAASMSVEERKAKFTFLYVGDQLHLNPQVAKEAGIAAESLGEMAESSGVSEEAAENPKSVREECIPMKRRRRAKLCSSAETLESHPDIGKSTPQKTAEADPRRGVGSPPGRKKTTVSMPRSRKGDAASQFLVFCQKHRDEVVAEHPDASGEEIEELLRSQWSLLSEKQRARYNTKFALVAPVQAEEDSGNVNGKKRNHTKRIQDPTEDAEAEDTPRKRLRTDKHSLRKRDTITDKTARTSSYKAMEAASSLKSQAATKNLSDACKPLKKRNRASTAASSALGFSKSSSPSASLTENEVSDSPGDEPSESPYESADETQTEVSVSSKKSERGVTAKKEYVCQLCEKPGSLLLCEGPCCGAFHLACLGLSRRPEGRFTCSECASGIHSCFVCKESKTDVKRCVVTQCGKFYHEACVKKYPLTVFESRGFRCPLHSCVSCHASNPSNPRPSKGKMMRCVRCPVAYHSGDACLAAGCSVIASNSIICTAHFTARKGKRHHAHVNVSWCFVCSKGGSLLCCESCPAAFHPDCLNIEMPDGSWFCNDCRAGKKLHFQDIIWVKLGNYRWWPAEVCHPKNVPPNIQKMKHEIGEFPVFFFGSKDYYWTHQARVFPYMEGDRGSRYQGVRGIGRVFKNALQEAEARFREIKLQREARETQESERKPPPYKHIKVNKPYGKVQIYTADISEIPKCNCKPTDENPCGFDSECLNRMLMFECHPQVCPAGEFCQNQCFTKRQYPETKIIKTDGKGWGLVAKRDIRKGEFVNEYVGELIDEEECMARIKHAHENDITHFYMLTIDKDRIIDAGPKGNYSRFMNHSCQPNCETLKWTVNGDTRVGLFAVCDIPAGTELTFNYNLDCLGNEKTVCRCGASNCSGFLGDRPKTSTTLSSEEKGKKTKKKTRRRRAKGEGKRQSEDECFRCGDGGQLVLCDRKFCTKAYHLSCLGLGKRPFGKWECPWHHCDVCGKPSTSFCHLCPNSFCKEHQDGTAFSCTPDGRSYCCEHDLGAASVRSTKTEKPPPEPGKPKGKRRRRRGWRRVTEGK

**Q.** With `CC(=O)Oc1cccc2c1C(=O)C1CC=CC(OC(C)=O)C1C2=O` (stereo not given) as the compound, how does the EC50 (Hexokinase-1) read?
**A.** Its EC50 is 34100 nM (inactive).

**Q.** What about the EC50 (Hexokinase HKDC1) of the same compound?
**A.** The EC50 was 51600 nM (inactive).

**Q.** What about the AC50 [1] of the same compound?
**A.** The AC50 was 10400 nM (active).

**Q.** Which results are given for `COc1cccc2c1C(=O)c1c(O)c3c(c(O)c1C2=O)CC(O)(C(C)=O)CC3OC1CC(N(C)C)C(O)C(C)O1` (stereo not given)?
**A.** IC50 [2]: 3820 nM (active); AC50 (Protein S100-A4): 304 nM (active); AC50 (Paired box protein Pax-8): 1520 nM (active); AC50 [3]: 807 nM (active); AC50 (Keap1/Nrf2): > 52000 nM (inactive)

**Q.** With `c1ccc(-c2cccc(-c3ccccn3)n2)nc1` [TERPYRIDINE] as the compound, how does the IC50 [4] read?
**A.** Its IC50 is > 100000 nM (inactive).

**Q.** What about the EC50 [5] of the same compound?
**A.** Its EC50 is 349 nM (active).

**Q.** And the IC50 [6]?
**A.** The IC50 was > 80000 nM (inactive).

**Q.** And the EC50 [7]?
**A.** Its EC50 is 27500 nM (active).

**Q.** And the EC50 [8]?
**A.** The EC50 was < 100 nM (active).

**Q.** And the IC50 [9]?
**A.** Its IC50 is 483 nM (active).

**Q.** And the IC50 [10]?
**A.** Its IC50 is 504 nM (active).

**Q.** And the EC50 [11]?
**A.** Its EC50 is 25300 nM (active).

**Q.** What about the AC50 (INS1) of the same compound?
**A.** The AC50 was < 195 nM (active).

**Q.** And the EC50 [12]?
**A.** Its EC50 is 16800 nM (active).

**Q.** And the EC50 [13]?
**A.** The EC50 was 17100 nM (inconclusive).

**Q.** And the IC50 [14]?
**A.** Its IC50 is 716 nM (active).

**Q.** What about the EC50 [15] of the same compound?
**A.** The EC50 was < 100 nM (active).

**Q.** What about the IC50 (cells) of the same compound?
**A.** Its IC50 is 44900 nM (active).

**Q.** What about the EC50 (BJ [16]) of the same compound?
**A.** The EC50 was 4870 nM (active).

**Q.** What about the CC50 [17] of the same compound?
**A.** The CC50 was > 20000 nM (active).

**Q.** What about the EC50 [18] of the same compound?
**A.** The EC50 was 4140 nM (active).

**Q.** And the CC50 [19]?
**A.** The CC50 was 210 nM (active).

**Q.** And the AC50 [3]?
**A.** The AC50 was 1350 nM (active).

**Q.** What about the EC50 (BJ [20]) of the same compound?
**A.** The EC50 was 4320 nM (inconclusive).

**Q.** What about the EC50 [21] of the same compound?
**A.** The EC50 was 2540 nM (active).

**Q.** What about the EC50 (BJ [22]) of the same compound?
**A.** Its EC50 is 11200 nM (active).

**Q.** What about the EC50 [23] of the same compound?
**A.** Its EC50 is 1320 nM (active).

**Q.** And the EC50 [24]?
**A.** Its EC50 is < 100 nM (active).

**Q.** What about the AC50 (HEK293) of the same compound?
**A.** Its AC50 is 2110 nM (active).

**Q.** And the IC50 (Nonstructural protein 1)?
**A.** Its IC50 is 1840 nM (active).

**Q.** What about the CC50 [25] of the same compound?
**A.** Its CC50 is 1020 nM (active).
